Where a name gives a salt, the structure may show the parent alone.
melting point: 231 to 233 °C
Compound: COc1cc2c(cc1OC)CN(CC(=O)c1cc(C(=O)c3ccc(SC)cc3)n(C)c1)CC2 (as salt: hydrochloride) [Compound 4, 2-(3,4-dihydro-6,7-dimethoxy-2(1H)-isoquinolinyl)-1-[1-methyl-5-[4-(methylthio)benzoyl]-1H-pyrrol-3-yl]-ethanone]

Reference: patent publication US6492387B2, “Isoindolyl and isoquinolinyl aroyl pyrrole compounds” (Ortho-McNeil Pharamaceutical, Inc., priority 2000, dated 2002)
